Experimental data as given in patent US20230085307A1, “PYRIDAZINONE COMPOUND AND HERBICIDE” (NISSAN CHEMICAL CORPORATION, priority 2019, published 2023).

What was measured:
wild oat [1] = experiment: Test Example 4: herbicidal effect by soil treatment (Table 19, symbol I); assay type: in vivo, wild oat (Avena fatua); settings: amount of applied herbicide 320 g/ha
Method in brief: (§1)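 Herbicidal effect was rated 3 weeks after treatment, using the scoring criteria of an earlier test. The compound, formulated as an emulsion and diluted in water to a set herbicide amount, had been sprayed uniformly on soil over freshly sown seeds. Growth took place in a greenhouse at 25° C. to 30° C.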

lambsquarters = experiment: Test Example 5: herbicidal effect by foliage application, plastic box (Table 20, symbol O); assay type: in vivo, lambsquarters (Chenopodium album); settings: 320 g/ha; for herbicidal effect on O: lambsquarters (evaluation grade 0-5): foliage application after 14-day growth, evaluated three weeks after application; for O: lambsquarters, herbicidal effect grade: three weeks after application
Method in brief: (§2)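 Foliar spray test: emulsion formulation diluted in water to a set application rate, sprayed onto 14-day-old plants raised in diluvial soil at 25° C to 30° C under glass. Both herbicidal effect and crop effect rated visually three weeks later.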

rice flat sedge = experiment: Test Example 3: herbicidal effect by foliage application, Wagner pot (Table 18, symbol E); assay type: in vivo, rice flat sedge (Cyperus iria); settings: for herbicidal effect on rice flat sedge (E): 320 g/ha
Method in brief: (§3)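 Plants were sown in alluvial soil held under 0.1–0.5 cm standing water and grown 14 days in a greenhouse at 25–30 °C. An emulsifiable formulation, water-diluted to the set dose, was then sprayed onto the foliage, and effects were scored three weeks later using previously defined criteria.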

wild oat [2] = experiment: Test Example 5: herbicidal effect by foliage application, plastic box (Table 20, symbol I); assay type: in vivo, wild oat (Avena fatua); settings: 320 g/ha; for herbicidal effect on I: wild oat (evaluation grade 0-5): foliage application after 14-day growth, evaluated three weeks after application; for I: wild oat, herbicidal effect grade: three weeks after application
Method in brief: as §2

blackgrass [3] = experiment: Test Example 4: herbicidal effect by soil treatment (Table 19, symbol J); assay type: in vivo, blackgrass (Alopecurus myosuroides); settings: amount of applied herbicide 320 g/ha
Method in brief: as §1

barnyard grass = experiment: Test Example 5: herbicidal effect by foliage application, plastic box (Table 20, symbol H); assay type: in vivo, barnyard grass (Echinochloa crus-galli); settings: 320 g/ha; for herbicidal effect on H: barnyard grass (evaluation grade 0-5): foliage application after 14-day growth, evaluated three weeks after application; for H: barnyard grass, herbicidal effect grade: three weeks after application
Method in brief: as §2

velvetleaf = experiment: Test Example 5: herbicidal effect by foliage application, plastic box (Table 20, symbol M); assay type: in vivo, velvetleaf (Abutilon theophrasti); settings: 320 g/ha; for herbicidal effect on M: velvetleaf (evaluation grade 0-5): foliage application after 14-day growth, evaluated three weeks after application; for M: velvetleaf, herbicidal effect grade: three weeks after application
Method in brief: as §2

southern crabgrass [4] = experiment: Test Example 5: herbicidal effect by foliage application, plastic box (Table 20, symbol F); assay type: in vivo, southern crabgrass (Digitaria ciliaris); settings: 320 g/ha; for herbicidal effect on F: southern crabgrass (evaluation grade 0-5): foliage application after 14-day growth, evaluated three weeks after application; for F: southern crabgrass, herbicidal effect grade: three weeks after application
Method in brief: as §2

oval-leafed pondweed = experiment: Test Example 1: herbicidal activity, application before weed generation under submerged conditions (Table 16, symbol C); assay type: in vivo, oval-leafed pondweed (Monochoria vaginalis); settings: amount of applied herbicide 320 g/ha
Method in brief: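 Alluvial soil was flooded to 4 cm depth, weed seeds were sown mixed and 2.5-leaf rice seedlings were transplanted. On sowing day, the compound's emulsion, diluted in water to a set dose, was applied to the water surface. Plants grew at 25–30 °C and were scored 0–5 after three weeks.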

redroot pigweed = experiment: Test Example 4: herbicidal effect by soil treatment (Table 19, symbol N); assay type: in vivo, redroot pigweed (Amaranthus retroflexus); settings: amount of applied herbicide 320 g/ha
Method in brief: as §1

Italian ryegrass = experiment: Test Example 5: herbicidal effect by foliage application, plastic box (Table 20, symbol K); assay type: in vivo, Italian ryegrass (Lolium multiflorum); settings: 320 g/ha; for herbicidal effect on K: Italian ryegrass (evaluation grade 0-5): foliage application after 14-day growth, evaluated three weeks after application; for K: Italian ryegrass, herbicidal effect grade: three weeks after application
Method in brief: as §2

Japanese bulrush = experiment: Test Example 2: herbicidal activity, application during weed generation under submerged conditions (Table 17, symbol B); assay type: in vivo, Japanese bulrush (Schoenoplectus juncoides); settings: for herbicidal effect rating, B: Japanese bulrush: AAH 320 g/ha, application during weed generation, submerged conditions
Method in brief: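 Herbicide emulsion, diluted with water to the chosen amount, is applied onto 4 cm floodwater over alluvial soil where the weeds were co-sown and raised at 25–30° C. Application timing: 1–2 leaves. Assessment: three weeks afterwards.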

blackgrass [5] = experiment: Test Example 5: herbicidal effect by foliage application, plastic box (Table 20, symbol J); assay type: in vivo, blackgrass (Alopecurus myosuroides); settings: 320 g/ha; for herbicidal effect on J: blackgrass (evaluation grade 0-5): foliage application after 14-day growth, evaluated three weeks after application; for J: blackgrass, herbicidal effect grade: three weeks after application
Method in brief: as §2

southern crabgrass [6] = experiment: Test Example 4: herbicidal effect by soil treatment (Table 19, symbol F); assay type: in vivo, southern crabgrass (Digitaria ciliaris); settings: amount of applied herbicide 320 g/ha
Method in brief: as §1

Chinese sprangletop = experiment: Test Example 3: herbicidal effect by foliage application, Wagner pot (Table 18, symbol D); assay type: in vivo, chinese sprangletop (Leptochloa chinensis); settings: for herbicidal effect on Chinese sprangletop (D): 320 g/ha
Method in brief: as §3

green foxtail = experiment: Test Example 4: herbicidal effect by soil treatment (Table 19, symbol G); assay type: in vivo, green foxtail (Setaria viridis); settings: amount of applied herbicide 320 g/ha
Method in brief: as §1

[7] = foliage application, evaluated 3 weeks after application
[8] = amount of applied herbicide 320 g/ha

Row | Structure (SMILES) | Herbicidal effect by soil treatment, I: wild oat (wild oat [1]) | herbicidal effect on O: lambsquarters (evaluation grade 0-5) (lambsquarters) | herbicidal effect on rice flat sedge (E) (rice flat sedge) | herbicidal effect on I: wild oat (evaluation grade 0-5) (wild oat [2]) | Herbicidal effect by soil treatment, J: blackgrass (blackgrass [3]) | herbicidal effect on H: barnyard grass (evaluation grade 0-5) (barnyard grass) | herbicidal effect on M: velvetleaf (evaluation grade 0-5) (velvetleaf) | herbicidal effect on F: southern crabgrass (evaluation grade 0-5) (southern crabgrass [4]) | Herbicidal effect, C: oval-leafed pondweed (oval-leafed pondweed) | Herbicidal effect by soil treatment, N: redroot pigweed (redroot pigweed) | herbicidal effect on K: Italian ryegrass (evaluation grade 0-5) (Italian ryegrass) | herbicidal effect rating, B: Japanese bulrush (Japanese bulrush) | herbicidal effect on J: blackgrass (evaluation grade 0-5) (blackgrass [5]) | Herbicidal effect by soil treatment, F: southern crabgrass (southern crabgrass [6]) | herbicidal effect on Chinese sprangletop (D) (Chinese sprangletop) | I: wild oat, herbicidal effect grade (wild oat [1]) | J: blackgrass, herbicidal effect grade (blackgrass [3]) | N: redroot pigweed, herbicidal effect grade (redroot pigweed) | F: southern crabgrass, herbicidal effect grade (southern crabgrass [6]) | G: green foxtail, herbicidal effect grade (green foxtail) | other results
1 | CCCC(=O)Oc1c(C)nn(C)c(=O)c1-c1c(-c2ccc(C(F)(F)F)cc2)sc2c(F)cccc12 [4-045] | 0 (Herbicidal rate of 5% or less (almost no effect)) | 3 (Herbicidal rate of 40% or more and less than 70%) | 5 (Herbicidal rate of 90% or more (almost completely withered)) | 0 (Herbicidal rate of 5% or less (almost no effect)) | 0 (Herbicidal rate of 5% or less (almost no effect)) | 2 (Herbicidal rate of 20% or more and less than 40%) | 4 (Herbicidal rate of 70% or more and less than 90%) | 0 (Herbicidal rate of 5% or less (almost no effect)) | 0 (Herbicidal rate of 5% or less (almost no effect)) | 4 (Herbicidal rate of 70% or more and less than 90%) | 5 (Herbicidal rate of 90% or more (almost completely withered)) | 0 (Herbicidal rate of 5% or less (almost no effect)) | 0 (Herbicidal rate of 5% or less (almost no effect)) | 0 (Herbicidal rate of 5% or less (almost no effect)) | 3 (Herbicidal rate of 40% or more and less than 70%) | – | – | – | – | – | Herbicidal effect by soil treatment, G: green foxtail (green foxtail): 0 (Herbicidal rate of 5% or less (almost no effect))
2 | CCCC(=O)Oc1c(C)nn(C)c(=O)c1-c1c(-c2ccccc2OCC)sc2c(Cl)cccc12 [4-026] | 0 (Herbicidal rate of 5% or less (almost no effect)) | 3 (Herbicidal rate of 40% or more and less than 70%) | 5 (Herbicidal rate of 90% or more (almost completely withered)) | 0 (Herbicidal rate of 5% or less (almost no effect)) | 0 (Herbicidal rate of 5% or less (almost no effect)) | 5 (Herbicidal rate of 90% or more (almost completely withered)) | 5 (Herbicidal rate of 90% or more (almost completely withered)) | 3 (Herbicidal rate of 40% or more and less than 70%) | 4 (Herbicidal rate of 70% or more and less than 90%) | 2 (Herbicidal rate of 20% or more and less than 40%) | 1 (Herbicidal rate of 5% or more and less than 20%) | 3 (Herbicidal rate of 40% or more and less than 70%) | 3 (Herbicidal rate of 40% or more and less than 70%) | 3 (Herbicidal rate of 40% or more and less than 70%) | 5 (Herbicidal rate of 90% or more (almost completely withered)) | – | – | – | – | – | Herbicidal effect by soil treatment, G: green foxtail (green foxtail): 3 (Herbicidal rate of 40% or more and less than 70%)
3 | Cc1ccc2oc(-c3ccc(OCC(C)C)cc3)c(-c3c(O)c(C)nn(C)c3=O)c2c1 [9-051] | – | – | – | – | – | – | – | – | 5 (Herbicidal rate of 90% or more (almost completely withered)) | – | – | – | – | – | – | 0 (Herbicidal rate of 5% or less (almost no effect)) | 5 (Herbicidal rate of 90% or more (almost completely withered)) | 5 (Herbicidal rate of 90% or more (almost completely withered)) | 1 (Herbicidal rate of 5% or more and less than 20%) | 5 (Herbicidal rate of 90% or more (almost completely withered)) | O (lambsquarters) herbicidal effect grade (lambsquarters; [7]): 5 (Herbicidal rate of 90% or more (almost completely withered)); Herbicidal effect on E (rice flat sedge), foliage application (rice flat sedge; [8]): 4 (Herbicidal rate of 70% or more and less than 90%); I (wild oat) herbicidal effect grade (wild oat [2]; [7]): 1 (Herbicidal rate of 5% or more and less than 20%); H (barnyard grass) herbicidal effect grade (barnyard grass; [7]): 4 (Herbicidal rate of 70% or more and less than 90%); M (velvetleaf) herbicidal effect grade (velvetleaf; [7]): 5 (Herbicidal rate of 90% or more (almost completely withered)); F (southern crabgrass) herbicidal effect grade (southern crabgrass [4]; [7]): 5 (Herbicidal rate of 90% or more (almost completely withered)); K (Italian ryegrass) herbicidal effect grade (Italian ryegrass; [7]): 5 (Herbicidal rate of 90% or more (almost completely withered)); herbicidal effect grade, B: Japanese bulrush (Japanese bulrush; application during weed generation under submerged conditions, amount of applied herbicide 320 g/ha): 4 (Herbicidal rate of 70% or more and less than 90%); J (blackgrass) herbicidal effect grade (blackgrass [5]; [7]): 5 (Herbicidal rate of 90% or more (almost completely withered)); Herbicidal effect on D (Chinese sprangletop), foliage application (Chinese sprangletop; [8]): 3 (Herbicidal rate of 40% or more and less than 70%)
4 | CCCCCOc1ccc2c(-c3c(O)c(C)nn(C)c3=O)c(-c3ccccc3OC)sc2c1 [3-108] | – | – | 1 (Herbicidal rate of 5% or more and less than 20%) | – | – | – | – | – | 5 (Herbicidal rate of 90% or more (almost completely withered)) | – | – | 2 (Herbicidal rate of 20% or more and less than 40%) | – | – | 2 (Herbicidal rate of 20% or more and less than 40%) | 0 (Herbicidal rate of 5% or less (almost no effect)) | 0 (Herbicidal rate of 5% or less (almost no effect)) | 4 (Herbicidal rate of 70% or more and less than 90%) | 0 (Herbicidal rate of 5% or less (almost no effect)) | 0 (Herbicidal rate of 5% or less (almost no effect)) | O: lambsquarters, herbicidal effect grade (lambsquarters; foliage application): 4 (Herbicidal rate of 70% or more and less than 90%); I: wild oat, herbicidal effect grade (wild oat [2]; foliage application): 0 (Herbicidal rate of 5% or less (almost no effect)); H: barnyard grass, herbicidal effect grade (barnyard grass; foliage application): 0 (Herbicidal rate of 5% or less (almost no effect)); M: velvetleaf, herbicidal effect grade (velvetleaf; foliage application): 2 (Herbicidal rate of 20% or more and less than 40%); F: southern crabgrass, herbicidal effect grade (southern crabgrass [4]; foliage application): 0 (Herbicidal rate of 5% or less (almost no effect)); K: Italian ryegrass, herbicidal effect grade (Italian ryegrass; foliage application): 0 (Herbicidal rate of 5% or less (almost no effect)); J: blackgrass, herbicidal effect grade (blackgrass [5]; foliage application): 0 (Herbicidal rate of 5% or less (almost no effect))
5 | COc1ccccc1-c1sc2cc(OCC3CC3(F)F)ccc2c1-c1c(O)c(C)nn(C)c1=O (centres unmarked) [3-131] | – | – | 5 (Herbicidal rate of 90% or more (almost completely withered)) | – | – | – | – | – | 5 (Herbicidal rate of 90% or more (almost completely withered)) | – | – | 3 (Herbicidal rate of 40% or more and less than 70%) | – | – | 3 (Herbicidal rate of 40% or more and less than 70%) | 3 (Herbicidal rate of 40% or more and less than 70%) | 4 (Herbicidal rate of 70% or more and less than 90%) | 5 (Herbicidal rate of 90% or more (almost completely withered)) | 3 (Herbicidal rate of 40% or more and less than 70%) | 4 (Herbicidal rate of 70% or more and less than 90%) | O: lambsquarters, herbicidal effect grade (lambsquarters; foliage application): 5 (Herbicidal rate of 90% or more (almost completely withered)); I: wild oat, herbicidal effect grade (wild oat [2]; foliage application): 5 (Herbicidal rate of 90% or more (almost completely withered)); H: barnyard grass, herbicidal effect grade (barnyard grass; foliage application): 5 (Herbicidal rate of 90% or more (almost completely withered)); M: velvetleaf, herbicidal effect grade (velvetleaf; foliage application): 4 (Herbicidal rate of 70% or more and less than 90%); F: southern crabgrass, herbicidal effect grade (southern crabgrass [4]; foliage application): 5 (Herbicidal rate of 90% or more (almost completely withered)); K: Italian ryegrass, herbicidal effect grade (Italian ryegrass; foliage application): 5 (Herbicidal rate of 90% or more (almost completely withered)); J: blackgrass, herbicidal effect grade (blackgrass [5]; foliage application): 5 (Herbicidal rate of 90% or more (almost completely withered))
